Tests used:
Assay type in all cases: in vivo
[1] = system: ducksalad (Heteranthera limosa); test: Test B flooded paddy: ducksalad; details: Flood; 250 g ai/ha; applied to paddy water at 2-leaf stage; visually evaluated after 13 to 15 days
In short: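 Response scored visually, 0–100 relative to controls, 13–15 days after the compound was applied into paddy water; plants were at the 2-leaf stage in pots kept flooded to 3 cm.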

[2] = system: chickweed (common chickweed, Stellaria media); test: Test C postemergence: chickweed
In short: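 Pot-grown plants in peat/vermiculite medium sprayed postemergence at 2–18 cm height (1- to 4-leaf stage). Kept in greenhouse 13 to 15 days, then visually rated against untreated controls on a 0–100 scale (0 = no effect, 100 = complete control).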

[3] = system: foxtail, giant (giant foxtail, Setaria faberii); test: Test C pre-/postemergence: foxtail, giant
In short: (§1)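 Preemergence on seeds in loam/sand, postemergence on 2–18 cm (1–4-leaf) plants in peat-based medium; compounds in non-phytotoxic solvent with surfactant. After 13–15 days in greenhouse, visual rating versus controls, 0 (no effect) to 100 (complete control).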

[4] = system: large crabgrass (Digitaria sanguinalis); test: Test C pre-/postemergence: large crabgrass
In short: as §1

wild oat (Avena fatua) = test: Test C pre-/postemergence: wild oat
In short: as §1

[5] = system: ragweed (common ragweed, Ambrosia elation); test: Test C pre-/postemergence: ragweed
In short: as §1

corn (Zea mays) [6] = test: Test C pre-/postemergence: corn
In short: as §1

[7] = system: nutsedge, yellow (yellow nutsedge, Cyperus esculentus); test: Test C pre-/postemergence: nutsedge, yellow
In short: as §1

kochia (Kochia scoparia) = test: Test C pre-/postemergence: kochia
In short: as §1

corn (Zea mays) [8] = test: Test A pre-/postemergence: corn
In short: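 Soil medium was loam blended with sand; treatments pre- and postemergence were applied concurrently, postemergence at one- to two-leaf stage. Approximately ten days in greenhouse preceded visual comparison with untreated controls, scored 0 (no effect) to 100 (complete control).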

[9] = system: velvetleaf (Abutilon theophrasti); test: Test C pre-/postemergence: velvetleaf
In short: as §1

[10] = 31 g ai/ha, scale 0 to 100 (0 no effect, 100 complete control)
[11] = 62 g ai/ha, scale 0 to 100 (0 no effect, 100 complete control)
[12] = 125 g ai/ha, scale 0 to 100, 0 no effect, 100 complete control
[13] = Postemergence, 31 g ai/ha, scale 0 to 100 (0 no effect, 100 complete control)
[14] = Postemergence, 62 g ai/ha, scale 0 to 100 (0 no effect, 100 complete control)
[15] = Postemergence, 125 g ai/ha, scale 0 to 100, 0 no effect, 100 complete control
[16] = Postemergence, 250 g ai/ha, scale 0 to 100
[17] = Preemergence, 31 g ai/ha, scale of 0 to 100, 0 is no effect, 100 is complete control
[18] = Preemergence, 62 g ai/ha, scale of 0 to 100, 0 is no effect, 100 is complete control
[19] = Preemergence, 125 g ai/ha, scale 0 to 100, 0 no effect, 100 complete control
[20] = Preemergence, 250 g ai/ha, scale 0 to 100, 0 no effect, 100 complete control
[21] = Postemergence, 125 g ai/ha, 0 to 100 scale, 0 is no effect, 100 is complete control
[22] = Preemergence, 125 g ai/ha, 0 to 100 scale where 0 is no effect and 100 is complete control
[23] = Preemergence, 500 g ai/ha, 0 to 100 scale (0 no effect, 100 complete control)
[24] = Preemergence, 31 g ai/ha, scale 0 (no effect) to 100 (complete control)
[25] = Postemergence, 250 g ai/ha, scale 0 to 100 (0 no effect, 100 complete control)

Compound: COc1nn(-c2cccc(F)c2)nc1Cc1ccnc(C(F)(F)F)c1 [Compound 139]
- Plant response rating, Ducksalad (0 to 100 scale, 0 is no effect, 100 is complete control) [1]: 70
- Plant response rating, Chickweed [2, 10]: 75
- Plant response rating, Chickweed [2, 11]: 98
- Plant response rating, Chickweed [2, 12]: 98
- Plant response rating, Chickweed ([2]; 250 g ai/ha, scale 0 to 100): 100
- Plant response rating, Foxtail, Giant [3, 13]: 15
- Plant response rating, Foxtail, Giant [3, 14]: 30
- Plant response rating, Foxtail, Giant [3, 15]: 40
- Plant response rating, Foxtail, Giant [3, 16]: 75
- Plant response rating, Foxtail, Giant [3, 17]: 95
- Plant response rating, Foxtail, Giant [3, 18]: 100
- Plant response rating, Foxtail, Giant [3, 19]: 100
- Plant response rating, Foxtail, Giant [3, 20]: 100
- Plant response rating, Crabgrass, Large [4, 13]: 40
- Plant response rating, Crabgrass, Large [4, 14]: 45
- Plant response rating, Crabgrass, Large [4, 15]: 55
- Plant response rating, Crabgrass, Large [4, 16]: 80
- Plant response rating, Crabgrass, Large [4, 17]: 100
- Plant response rating, Crabgrass, Large [4, 18]: 100
- Plant response rating, Crabgrass, Large [4, 19]: 100
- Plant response rating, Crabgrass, Large [4, 20]: 100
- Plant response rating, Oat, Wild (wild oat (Avena fatua); [13]): 40
- Plant response rating, Oat, Wild (wild oat (Avena fatua); [14]): 50
- Plant response rating, Oat, Wild (wild oat (Avena fatua); [15]): 60
- Plant response rating, Oat, Wild (wild oat (Avena fatua); [16]): 80
- Plant response rating, Oat, Wild (wild oat (Avena fatua); [17]): 10
- Plant response rating, Oat, Wild (wild oat (Avena fatua); [18]): 50
- Plant response rating, Oat, Wild (wild oat (Avena fatua); [20]): 85
- Plant response rating, Ragweed [5, 14]: 40
- Plant response rating, Ragweed [5, 15]: 45
- Plant response rating, Ragweed [5, 16]: 75
- Plant response rating, Ragweed [5, 17]: 0
- Plant response rating, Ragweed [5, 18]: 0
- Plant response rating, Ragweed [5, 19]: 30
- Plant response rating, Ragweed [5, 20]: 55
- Plant response rating, Corn (corn (Zea mays) [6]; [14]): 25
- Plant response rating, Corn (corn (Zea mays) [6]; [15]): 55
- Plant response rating, Corn (corn (Zea mays) [6]; [16]): 60
- Plant response rating, Corn (corn (Zea mays) [6]; [17]): 0
- Plant response rating, Corn (corn (Zea mays) [6]; [18]): 0
- Plant response rating, Corn (corn (Zea mays) [6]; [19]): 10
- Plant response rating, Corn (corn (Zea mays) [6]; [20]): 30
- Plant response rating, Nutsedge, Yellow [7, 13]: 10
- Plant response rating, Nutsedge, Yellow [7, 14]: 10
- Plant response rating, Nutsedge, Yellow [7, 15]: 10
- Plant response rating, Nutsedge, Yellow [7, 16]: 25
- Plant response rating, Nutsedge, Yellow [7, 17]: 0
- Plant response rating, Nutsedge, Yellow [7, 18]: 0
- Plant response rating, Nutsedge, Yellow [7, 19]: 0
- Plant response rating, Nutsedge, Yellow [7, 20]: 5
- Plant response rating, Kochia (kochia (Kochia scoparia); [13]): 85
- Plant response rating, Kochia (kochia (Kochia scoparia); [14]): 85
- Plant response rating, Kochia (kochia (Kochia scoparia); [15]): 90
- Plant response rating, Kochia (kochia (Kochia scoparia); [16]): 90
- Plant response rating, Kochia (kochia (Kochia scoparia); [17]): 65
- Plant response rating, Kochia (kochia (Kochia scoparia); [18]): 75
- Plant response rating, Kochia (kochia (Kochia scoparia); [19]): 90
- Plant response rating, Kochia (kochia (Kochia scoparia); [20]): 100
- Corn plant response rating (corn (Zea mays) [8]; [21]): 30
- Corn plant response rating (corn (Zea mays) [8]; Postemergence, 500 g ai/ha, visual rating on 0 to 100 scale (0 no effect, 100 complete control), approximately ten days): 50
- Plant response rating, Corn (corn (Zea mays) [8]; [22]): 10
- Plant response rating, Corn (corn (Zea mays) [8]; [23]): 30
- Plant response rating, Velvetleaf [9, 13]: 20
- Plant response rating, Velvetleaf [9, 14]: 35
- Plant response rating, Velvetleaf [9, 15]: 70
- Plant response rating, Velvetleaf [9, 16]: 75
- Plant response rating, Velvetleaf [9, 17]: 0
- Plant response rating, Velvetleaf [9, 18]: 10
- Plant response rating, Velvetleaf [9, 19]: 40
- Plant response rating, Velvetleaf [9, 20]: 40

Compound: CCc1nn(-c2ccc(C(F)(F)F)cc2)nc1Oc1ccnc(C(F)(F)F)c1 [Compound 169]
- Plant response rating, Ducksalad (0 to 100 scale, 0 is no effect, 100 is complete control) [1]: 85
- Plant response rating, Chickweed [2, 10]: 60
- Plant response rating, Chickweed [2, 11]: 60
- Plant response rating, Chickweed [2, 12]: 95
- Plant response rating, Chickweed ([2]; 250 g ai/ha, scale 0 to 100): 100
- Plant response rating, Foxtail, Giant [3, 13]: 20
- Plant response rating, Foxtail, Giant [3, 14]: 65
- Plant response rating, Foxtail, Giant [3, 15]: 65
- Plant response rating, Foxtail, Giant [3, 16]: 90
- Plant response rating, Foxtail, Giant [3, 24]: 100
- Plant response rating, Foxtail, Giant [3, 18]: 100
- Plant response rating, Foxtail, Giant [3, 19]: 100
- Plant response rating, Foxtail, Giant [3, 20]: 100
- Plant response rating, Crabgrass, Large [4, 13]: 35
- Plant response rating, Crabgrass, Large [4, 14]: 35
- Plant response rating, Crabgrass, Large [4, 15]: 40
- Plant response rating, Crabgrass, Large [4, 16]: 80
- Plant response rating, Crabgrass, Large [4, 24]: 100
- Plant response rating, Crabgrass, Large [4, 18]: 100
- Plant response rating, Crabgrass, Large [4, 19]: 100
- Plant response rating, Crabgrass, Large [4, 20]: 100
- Plant response rating, Oat, Wild (wild oat (Avena fatua); [13]): 5
- Plant response rating, Oat, Wild (wild oat (Avena fatua); [14]): 25
- Plant response rating, Oat, Wild (wild oat (Avena fatua); [15]): 30
- Plant response rating, Oat, Wild (wild oat (Avena fatua); [25]): 50
- Plant response rating, Ragweed [5, 13]: 40
- Plant response rating, Ragweed [5, 14]: 60
- Plant response rating, Ragweed [5, 15]: 85
- Plant response rating, Ragweed [5, 25]: 95
- Plant response rating, Ragweed [5, 24]: 15
- Plant response rating, Ragweed [5, 18]: 15
- Plant response rating, Ragweed [5, 19]: 30
- Plant response rating, Ragweed [5, 20]: 65
- Plant response rating, Corn (corn (Zea mays) [6]; [13]): 10
- Plant response rating, Corn (corn (Zea mays) [6]; [14]): 15
- Plant response rating, Corn (corn (Zea mays) [6]; [15]): 20
- Plant response rating, Corn (corn (Zea mays) [6]; [16]): 30
- Plant response rating, Corn (corn (Zea mays) [6]; [24]): 5
- Plant response rating, Corn (corn (Zea mays) [6]; [18]): 5
- Plant response rating, Corn (corn (Zea mays) [6]; [19]): 10
- Plant response rating, Corn (corn (Zea mays) [6]; [20]): 20
- Plant response rating, Nutsedge, Yellow [7, 13]: 5
- Plant response rating, Nutsedge, Yellow [7, 14]: 5
- Plant response rating, Nutsedge, Yellow [7, 15]: 10
- Plant response rating, Nutsedge, Yellow [7, 25]: 10
- Plant response rating, Nutsedge, Yellow [7, 24]: 0
- Plant response rating, Nutsedge, Yellow [7, 18]: 5
- Plant response rating, Nutsedge, Yellow [7, 19]: 5
- Plant response rating, Nutsedge, Yellow [7, 20]: 5
- Plant response rating, Kochia (kochia (Kochia scoparia); [13]): 85
- Plant response rating, Kochia (kochia (Kochia scoparia); [14]): 90
- Plant response rating, Kochia (kochia (Kochia scoparia); [15]): 90
- Plant response rating, Kochia (kochia (Kochia scoparia); [25]): 90
- Plant response rating, Corn (corn (Zea mays) [8]; [21]): 10
- Corn plant response rating (corn (Zea mays) [8]; Postemergence, 500 g ai/ha, 0 to 100 scale, 0 is no effect, 100 is complete control): 50
- Plant response rating, Corn (corn (Zea mays) [8]; [22]): 20
- Plant response rating, Corn (corn (Zea mays) [8]; [23]): 20
- Plant response rating, Velvetleaf [9, 13]: 50
- Plant response rating, Velvetleaf [9, 14]: 65
- Plant response rating, Velvetleaf [9, 15]: 75
- Plant response rating, Velvetleaf [9, 25]: 80
- Plant response rating, Velvetleaf [9, 24]: 50
- Plant response rating, Velvetleaf [9, 18]: 75
- Plant response rating, Velvetleaf [9, 19]: 75
- Plant response rating, Velvetleaf [9, 20]: 100

— patent US9302999B2, “Substituted triazoles as herbicides” (E. I. DU PONT DE NEMOURS AND COMPANY, priority 2012, dated 2016)
